A short description of this series: gradient 5% acetonitrile 3 min, to 50% in 2 min, to 85% in 15 min, held 3 min, 100 µL/min. As to conditions: column: Zorbax Extend-C18 2.1 x 50 mm; eluents: water / acetonitrile, 0.1% formic acid. The gist of the method: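 The system's dead and dwell volumes were 40 μL and 900 μL, with a Zorbax Extend-C18 column (2.1 × 50 mm, 1.8 μm) run at 100 μL/min in water and acetonitrile containing 0.1% formic acid each. Pure standards were analyzed in mixtures of ~100 molecules by HPLC–quadrupole time-of-flight mass spectrometry in positive and negative ionization mode. Retention time was assigned from computationally picked, manually inspected adduct peaks.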
`O=C(N[C@H]1C[C@@H]2C[C@H]1CN2C(=O)c1ccc2c(c1)OCO2)c1ccccc1` displayed an RP-LC retention time of 700 s. Consider `COc1ccc(N2CC(C(=O)N3CCc4cc(-c5ccno5)ccc43)CC2=O)cc1` (stereo not given), for which the RP-LC retention time is 807 s. With `Fc1cccc(-c2noc(-c3ccc(N4CCN(c5ccccn5)CC4)nc3)n2)c1` the figure was 799 s; with `CC(C)Cn1c(=O)c(C(=O)NCCCN2CCCCC2)nc2cccnc21`, 642 s.

Turning to `Cc1cc2c(cc1NC(=O)c1ccco1)n(C)c(=O)n2C`, the RP-LC retention time worked out at 635 s. The same measure for `COC(=O)c1sccc1S(=O)(=O)N1CCC(C(N)=O)(N2CCCCC2)CC1`: 580 s. The same measure for `CCN(C(=O)Cn1nc(S(=O)(=O)c2ccc(Cl)cc2)ccc1=O)c1ccccc1`: 920 s; for `O=c1c2nc(-c3ccccc3)cn2ccn1-c1ccc(F)c(Cl)c1`: 853 s. The same measure for `CCOC(=O)c1cc(S(=O)(=O)N2CCCC2C(=O)Nc2nc3ccc(C)cc3s2)cn1C` (stereo not given): 1040 s; for `Nc1sc(SCC(=O)Nc2ccc3c(c2)OCO3)nc1-c1ccccc1`: 797 s. On to `Cn1c(CCC(=O)NCc2ccc(C(F)(F)F)cc2)nc2ccccc2c1=O`, for which the RP-LC retention time turned out to be 825 s.

For `CCn1ncc(CN2CCC[C@H]2c2nc(-c3ccccc3)n[nH]2)c1C`, the RP-LC retention time is 601 s. With `CCOc1ccc(NC(=O)CCc2cccc3[nH]ccc23)cc1` the figure was 875 s; with `CCNC(=O)c1cc2cc(Br)ccc2[nH]1`, 828 s; with `O=C(CCc1nc(CSc2nnc(-c3ccccc3)o2)no1)Nc1ccc(F)cc1`, 892 s. For the compound `Cc1ccc(NC(=O)N2CCN(C3=CC4=NC(C)CN4C=N3)CC2)c(C)c1` (stereo not given), the RP-LC retention time stood at 627 s.

Take `CC(=O)Nc1nc(-c2ccc(S(=O)(=O)N3CCOCC3)cc2)cs1`: the RP-LC retention time was 735 s. The same measure for `COc1ccc(Cl)c(Cn2c(NCC3CCCO3)nc3c2c(=O)n(C)c(=O)n3C)c1` (stereo not given): 801 s; for `Cc1cc(C)c(S(=O)(=O)N2CCCC2c2nc(-c3cccc(F)c3)no2)c(C)c1` (stereo not given): 1270 s. With `O=C(CC(=O)Nc1ccc2nc3n(c(=O)c2c1)CCCCC3)Nc1ccc(F)cc1` the figure was 705 s. With `CSc1ncccc1C(=O)NCC(O)c1ccsc1` (stereo not given) the figure was 626 s; with `COC(=O)C1=C(C)N(C(C)C)C(=O)C1(NC(=O)c1cccc(OC)c1)C(F)(F)F` (stereo not given), 917 s; with `Cc1ccccc1NC(=O)C1CCCN1S(=O)(=O)c1cc2c(cc1C)NC(=O)CO2` (stereo not given), 763 s. The compound `COc1ccc(-c2nc(N3CCCCC3)ncc2C(=O)O)cc1` came in with an RP-LC retention time of 923 s. As to `CC(=O)c1cccc(NC(=O)Cn2cc(-c3nnc(C)o3)c3ccccc32)c1`, the RP-LC retention time was 755 s. For `CCc1noc(-c2ccc(-n3cnc(C(=O)NC4CCCCCC4)c3)nc2)n1`, the RP-LC retention time is 968 s. With `COc1ccc(N2C=C(C(=O)N3CCCC3)S(=O)(=O)c3ccccc32)cc1Cl` the figure was 808 s. With `CCOc1ccc(NC(=O)N(C)CCc2noc(C3CCCCC3)n2)cc1` the figure was 942 s; with `CCS(=O)(=O)N1CC(=O)N(c2ccc(F)cc2C)C(C)(C(=O)NC2CCCCC2)C1` (stereo not given), 919 s; with `Cc1[nH]c(C(=O)N2CCC(CC(=O)N3CCCCCC3)CC2)c(C)c1C(=O)OC(C)C`, 879 s. In turn, `CC(C)c1nc2nccc(-c3ccccc3)n2n1` gave an RP-LC retention time of 827 s. `Cc1ccc2c(=O)c(C(=O)N3CCCC3)cn(CC(=O)Nc3ccc(F)c(F)c3)c2n1`: the RP-LC retention time is 720 s.

`CS(=O)(=O)N1CCCc2cc(C(=O)Nc3ccc(Br)cc3F)ccc21` registered an RP-LC retention time of 951 s. The same measure for `Cc1cc(C(=O)N(CCn2nc(C)cc2C)c2nc3c(C(C)C)cccc3s2)on1`: 1200 s. Regarding `COc1ccc(-c2nc(Cc3noc(-c4cccc(OC)c4)n3)c(C)o2)cc1`, the RP-LC retention time is 1030 s. With `COCC1CN(S(=O)(=O)c2ccc(C#N)cc2)CC12CCNCC2` (stereo not given) the figure was 608 s; with `O=C(NC1CC1)c1ccc(N2CCC(NCc3ccc(Br)cc3)C2)nc1` (stereo not given), 572 s; with `C/C=C/C(=O)N1C(=O)OC[C@@H]1Cc1ccccc1`, 891 s.

Compound `Cc1ccc(-n2c(=O)n(CC(=O)NCCN3CCCCC3)c3cccnc32)cc1` displayed an RP-LC retention time of 616 s.

Regarding `CC(C)CNC(=O)N1CCN(Cc2nc3cccnc3n2-c2cccc(F)c2)CC1`, the RP-LC retention time came out at 634 s. With `O=C(CCC1CCCC1)N1CCN(C(=O)c2cc(-c3cccnc3)n[nH]2)CC1` the figure was 652 s; with `CCc1nnc2nc(N3CCN(C(=O)Cc4cccs4)CC3)cc(C)n12`, 613 s. As to `O=C(NCc1ccccc1)Nc1c(-c2ccc(F)cc2)nc2ccccn12`, the RP-LC retention time was 661 s.

Compound `Cc1ccc(-c2cc(C(=O)NC(C)C)n(C)c2)cc1` had an RP-LC retention time of 977 s.

`Cc1nc(CCNC(=O)C2CCN(S(=O)(=O)c3ccc(CC(C)C)cc3)CC2)cs1` yielded an RP-LC retention time of 917 s. Regarding `Cc1ccccc1NC(=O)COc1cccc2c(=O)n(C)ccc12`, the RP-LC retention time amounted to 758 s. `Cc1ccc(OCC(=O)N(C)CC2(C)CCOCC2)cc1` returned an RP-LC retention time of 799 s.

The compound `COc1ccc(NC(=O)CSc2nnc3c4sc(N5CCCC5)nc4ncn23)cc1Cl` returned an RP-LC retention time of 798 s. The same measure for `CC(C)n1c(=O)sc2cc(S(=O)(=O)N3CCC(C(=O)N4CCCC4)CC3)ccc21`: 809 s. The same measure for `CCc1nc2cc(N3CCC(C(=O)N4CCCC4)CC3)cnc2nc1CC`: 714 s. With `CN(C)c1cc(-n2cnc(C(=O)NCc3ccc(Cl)cc3)c2)ncn1` the figure was 825 s; with `COCc1cc2nn(CC(=O)N3CCc4ccccc43)c(=O)n2c(-c2ccccc2)n1`, 856 s; with `CCCS(=O)(=O)N1CCC(N2C[C@H](OC)[C@@H]2c2cccnc2)CC1`, 561 s. Turning to `COC(=O)c1ccc(NC(=O)CN2CCc3[nH]c4c(C)c(Cl)ccc4c(=O)c3C2)cc1`, the RP-LC retention time came out at 569 s. Consider `COc1ccccc1N1CCN(c2cc(SCC(=O)Nc3ccc(Cl)cc3)ncn2)CC1`, for which the RP-LC retention time was 1080 s. With `Cc1cc(C)c(S(=O)(=O)N2CC(c3nc(-c4ccncc4)no3)C2)c(C)c1` the figure was 978 s. With `COc1ccc(-c2nc3cc(C)ccn3c2NC(=O)COc2ccccc2)cc1` the figure was 694 s. Consider `O=C(Nc1nc2ccccc2s1)C1CCN(C(=O)c2ccc(F)cc2)CC1`, for which the RP-LC retention time was 808 s.

As for `Cc1nnc(CNC(=O)C(C)n2nnc3ccccc3c2=O)o1` (stereo not given), the RP-LC retention time worked out at 577 s.

`Cc1nnc(-c2cccnc2N2CCN(C(=O)c3ccsc3)CC2)o1` yielded an RP-LC retention time of 675 s. With `c1ccc(CNc2cc(-n3cccn3)ncn2)cc1` the figure was 832 s; with `O=C(NCCN1CCOCC1)c1ccc(Nc2c(-c3ccccc3)nc3cnccn23)cc1`, 581 s; with `Cn1cccc1-c1noc(C2CCN(C(=O)C3(c4ccccc4)CC3)C2)n1` (stereo not given), 931 s.

The compound `Cc1noc([C@@H]2CN(Cc3c(F)cccc3Cl)C[C@H]2CO)n1` gave an RP-LC retention time of 605 s. With `CN(Cc1ccc(OC(F)(F)F)cc1)C1CCc2nnc(C3CCOCC3)n2CC1` (stereo not given) the figure was 616 s; with `COc1ccc(NS(=O)(=O)c2ccc(-c3nnc(C4CCC4)o3)o2)cc1`, 864 s. The same measure for `CCN(C(=O)C1CCCN1S(=O)(=O)c1cc2c(cc1C)NC(=O)C(C)O2)c1cccc(C)c1` (stereo not given): 868 s. For `COc1cccc(-c2nc(C3CCN(S(=O)(=O)c4ccc5c(c4)CCC5)CC3)no2)c1`, the RP-LC retention time turned out to be 1220 s. `CCN(C(=O)CN1C(=O)NC(c2ccc(C)cc2)C2=C1COC2=O)c1cccc(C)c1` (stereo not given): the RP-LC retention time is 817 s.

Compound `COc1ccc(-c2nnc(COc3ccc(NC(=O)c4ccc(C)s4)cc3)o2)cc1` yielded an RP-LC retention time of 921 s. With `Cc1ncoc1C(=O)N1CCOc2ccc(NC(=O)C3CC3)cc2C1` the figure was 659 s; with `Cc1cc(C)c(CNC(=O)c2cn3ccccc3n2)c(C)c1`, 783 s. `O=C(Cn1nc2c(Oc3ccc(F)cc3)nccn2c1=O)NCc1ccccc1` showed an RP-LC retention time of 770 s.

As to `COc1ccc2ncc(S(=O)(=O)c3ccc(C)c(Cl)c3)c(OC)c2c1`, the RP-LC retention time amounted to 1100 s. Regarding `COc1ccccc1CNC(=O)Cn1cccc1-c1nnc(-c2ccccc2)o1`, the RP-LC retention time was determined as 920 s. Compound `CS(=O)(=O)N1CCC(OC2CCN(C(=O)Nc3ccc(F)cc3)CC2)CC1` returned an RP-LC retention time of 729 s. `O=C(Cc1ccccc1)NC1CCN(c2cc(-c3cccs3)[nH]n2)C1` (stereo not given) had an RP-LC retention time of 741 s. The same measure for `Cc1cc(C(=O)N2CCC3(CC2)CC(C)(O)CCO3)c(C)o1` (stereo not given): 677 s; for `CCn1ncc(NC(=O)c2ccccc2OC)c(N2CCOCC2)c1=O`: 829 s; for `CCN1CCn2cc(C(=O)NCc3cc(C)ccc3C)nc2C1`: 592 s.

The record behind these values is the METLIN SMRT retention time set (Domingo-Almenara et al. 2019).
